Legend:
Format in all cases: in vivo
isolated heart [1] = assay: Effect of angiotensin I and bradykinin on coronary blood flow in the isolated heart after oral pretreatment; details: isolated heart of rabbits, guineapigs and rats
Protocol: Angiotensin I decreases whilst bradykinin increases the coronary blood flow in the isolated heart of rabbits, guineapigs and rats. […] The same effect can only be achieved with 30 mg/kg of enalapril.

ACE in the heart = assay: Inhibition of ACE in the heart after oral treatment of spontaneously hypertensive rats
Protocol: It is known that converting enzyme inhibitors are capable of inhibiting the enzyme not only in the serum but also in various tissues, and especially also in the heart.
In contrast, with 30 mg/kg of N-(1-carbethoxy-3-phenyl-propyl)-S-alanyl-S-proline (enalapril) perorally, already no further significant inhibition is observed after more than 6 hours.

isolated heart [2] = assay: Postganglionic sympathetic stimulation on the isolated heart after oral pretreatment; details: oral pretreatment with 1 mg/kg perorally, rabbits
Description: Postganglionic sympathetic stimulation on the isolated heart leads, via increased catecholamine release, to an increase in heart rate and contractility and to a decrease in coronary blood flow. […] These effects act together to protect the incompetent heart.

[3] = oral pretreatment with 1 mg/kg perorally

SMILES | action of bradykinin on coronary blood flow (isolated heart [1]; [3]) | effect of angiotensin I on coronary blood flow (isolated heart [1]; [3]) | inhibition of the ACE in the heart at the end of treatment (ACE in the heart; chronic oral treatment for two weeks with 1 mg/kg) [%] | duration of significant inhibition of the ACE in the heart (ACE in the heart; single oral dose of 1 mg/kg) [h] | influence of postganglionic sympathetic stimulation on contractility (isolated heart [2]) | influence of postganglionic sympathetic stimulation on coronary blood flow (isolated heart [2]) | influence of postganglionic sympathetic stimulation on heart rate (isolated heart [2]) | action of bradykinin on coronary blood flow (isolated heart [1]; 30 mg/kg) | effect of angiotensin I on coronary blood flow (isolated heart [1]; 30 mg/kg) | duration of significant inhibition of the ACE in the heart (ACE in the heart; 30 mg/kg perorally) [h] | inhibition of the ACE in the heart at the end of treatment (ACE in the heart; chronic oral treatment for two weeks with 30 mg/kg perorally)
CCOC(=O)[C@H](CCc1ccccc1)N[C@@H](C)C(=O)N1[C@H](C(=O)O)C[C@@H]2CCC[C@@H]21 [compound of the formula II, N-(1-S-carbethoxy-3-phenyl-propyl)-S-alanyl-cis-endo-2-azabicyclo[3,3,0]octane-3-S-carboxylic acid] | increases | significantly reduces | 55 | > 24 | unaffected | significantly reduces | significantly reduces | – | – | – | –
CCOC(=O)[C@H](CCc1ccccc1)N[C@@H](C)C(=O)N1CCC[C@H]1C(=O)O [enalapril, N-(1-carbethoxy-3-phenyl-propyl)-S-alanyl-S-proline, reference compound] | – | – | – | – | – | – | – | same effect | same effect | ≤ 6 | no inhibition is observed

Source: patent US5747504A, “Method of treating cardiac insufficiency using angiotensin-converting enzyme inhibitors” (priority 1984, dated 1998)
